# Source: patent EP1433485B1, “Alpha-MSH derived peptides for treating uro-genital conditions” (MSH Pharma, Inc., priority 1999, dated 2009)
# Bridge positions count the residues as written; N and C are the ends. Peptide text beside a SMILES is read from it. I, II: the chains in the order shown.
# Experiments:
# [1] = rabbit, in vivo; cited from earlier work
# S. aureus (ATCC 29213) = experiment: S. aureus viability estimated from colonies formed; format: cell-based, Staphylococcus aureus; conditions: Figure 1; two hours at 37°C; significant with peptide concentrations of 10^-12 to 10^-4 M
# Experimental: (§1) Cultures of S. aureus (ATCC 29213) were obtained from the collection of the Department of Microbiology, Ospedale Maggiore di Milano. […] Cells were then washed in cold distilled water and diluted with HBSS to a concentration of 100 organisms/ml. One-milliliter aliquots were dispensed on blood agar plates and incubated for 24 hours at 37°C. Viability of the microorganisms was estimated from the colonies formed. In another set of experiments, 500 units of urokinase, a S. aureus growth enhancer, were also incubated with the bacteria (10^5/100ml) for four hours at 37°C in a shaking water bath together with the peptides.
# C. albicans [2] = conditions: for ability of C albicans to form colony: Figure 3, 10^-12 to 10^-4 M, p<0.01 vs. control; for C. albicans viability: Figure 4, procedures of Example II
# Experimental: (§2) Clinical isolates of C. albicans were also obtained from the collection of the Department of Microbiology, Ospedale Maggiore di Milano. Cultures of C. albicans were maintained on Sabouraud's agar slants and periodically transferred to Sabouraud's agar plates and incubated for 48 hours at 28°C. To prepare stationary growth-phase yeast, a colony was taken from the agar plate, transferred into 30 ml of Sabouraud-dextrose broth, and incubated for 72 hours at 32°C. Cells were centrifuged at 1000xg for ten minutes, and the pellet was washed twice with distilled water. Cells were counted and suspended in Hank's balanced salt solution ("HBSS") to the desired concentration.
# (§3) Cells were then washed in cold distilled water and diluted with HBSS to a concentration of 100 organisms/ml. One-milliliter aliquots were then dispensed on blood agar plates and incubated for 48 hours at 37°C. The organism's viability was estimated from the number of colonies formed.
# (§4) The reactions were stopped after three minutes by the addition of ice cold ethanol. cAMP levels were measured in duplicates using a commercial enzyme immunoassay kit (Amersham, United Kingdom) after extraction-via the liquid-phase method according to the manufacturer's instructions. […] The effects of forskolin and ddAdo on the ability of C. albicans to form colonies were determined according to the procedures described in Example II.
# C. albicans [3] = experiment: C. albicans viability estimated from colonies formed; format: cell-based, Candida albicans; conditions: Figure 9; ddAdo 25, 50 and 100 x 10^-5 M for two hours, then peptide two additional hours
# Experimental: as §2, §3, §4
# C. albicans [4] = experiment: C. albicans germ tube formation induced by horse serum; format: cell-based, Candida albicans; conditions: peptide 10^-6 M, 60 minutes at 37°C after horse serum induction
# Experimental: C. albicans from stationary phase cultures were washed twice with distilled water and suspended in HBSS to a final concentration of 2 x 10^6/ml. Hyphal growth was induced by addition of 10% inactivated horse serum (GIBCO/ BRL, Paisley, Great Britain) to yeast incubated for 45 minutes at 37°C with continuous shaking. […] The percentage of filamentous cells was evaluated under a light microscope with the aid of a hemocytometer. Experiments were run in triplicates and at least 200 cells were scored. Photomicrographs were taken with a MC100 camera attached to an Axioskop Zeiss microscope.
# S. aureus = experiment: urokinase induced growth of S. aureus; format: cell-based, Staphylococcus aureus; conditions: Figure 2; peptide 10^-6M; 500 units of urokinase, four hours at 37°C
# Experimental: as §1
# C. albicans [5] = experiment: killing of opsonized C. albicans by human neutrophils; format: cell-based, Candida albicans; conditions: Figure 6; 10^-12 to 10^-4 M; p<0.01
# Experimental: Venous blood (20 ml) from healthy volunteers was anticoagulated with heparin. Neutrophils were then isolated using dextran sedimentation and centrifugation with Ficoll-Hypaque (Sigma Chemical Co., St. Louis, Missouri, USA). Erythrocytes were lysed via hypotonic shock with the resulting neutrophils representing at least 97% of the cell suspension. Cell viability; estimated by trypan blue exclusion, was greater than 98%. Neutrophils were resuspended in HBSS for the experiments. […] ID. NO. 4)or α-MSH (11-13) (SEQ. ID. […] After incubation, the culture tubes were placed on ice to stop growth, and extracellular organisms were washed twice with centrifugation at 1000-x g at 4°C. A 2.5% sodium deoxycholate solution was added to the suspension, and the tubes were shaken for five minutes. Cold distilled water was then added to obtain a suspension of 10^6 cells/ml. Two 1/100 serial dilution in HBSS were made to obtain a final suspension of 100 cells/ml. One-milliliter aliquots were then dispensed on blood agar plates and incubated for 48 hours at 37°C. Colony forming units were counted at the end of the incubation period with experiments running in triplicates and repeated using blood from five different donors.
# NF-κB = NF-κB binding activity in nuclear extracts of U1 cells (gel shift); format: cell-based, human
# Experimental: For the determination of specific bands, nuclear extracts were first incubated with 100 fold excess unlabeled probe for five minutes, before incubation with a labeled probe. […] The gels were dried and autoradiographed.
# C. albicans [6] = experiment: cAMP content of permeabilized C. albicans (enzyme immunoassay); format: cell-based, Candida albicans; conditions: Figure 7; 10^-6 M, three minutes; same order of magnitude as equimolar forskolin
# Experimental: ID. NO. 4), (11-13) (SEQ. ID. NO. 1), or forskolin, an agent known to increase intracellular cAMP. The reactions were stopped after three minutes by the addition of ice cold ethanol. cAMP levels were measured in duplicates using a commercial enzyme immunoassay kit (Amersham, United Kingdom) after extraction-via the liquid-phase method according to the manufacturer's instructions.
# HIV-1 = conditions: Figure 11; 10^-5M; induced by IL-6, IL-10, PMA and in crowding condition
# Excerpt: Chronically HIV-1 infected promonocytic U1 cell line is an in vitro model of latent HIV infection in monocytes. These cells carry two integrated proviral copies of HIV, and constitutive expression of HIV is very low. Viral replication, however, as measured by RNA transcription , p24 antigen, or reverse transcriptase release, can be activated with different stimuli such as TNF-α, IL-6, IL-10, PMA or crowding of cells.
# Crowding was achieved by seeding U 1 cells at a density of 2x10^5/ml and maintaining them in culture at 37°C in 5% CO2 without changing media for seven days. Cultures activated with cytokines or PMA were maintained for only 48 hours. Supernatants were then removed by centrifugation and assayed for p24 antigen using commercially available ELISA kits from Cellular Products, Inc. in Buffalo, NY, USA. Reverse transcriptase releases were also measured using a commercially available kit, ELISA Retrosys RT assay from Innovagen, Lund, Sweden.
# HIV-1 RNA = experiment: Northern Blot analysis of HIV-1 RNA in PMA stimulated U1 cells; format: cell-based; conditions: Figure 12
compound,measurement,setting,value
8-13 sequence: α-MSH 8-13 sequence (RWGKPV),antipyretic potency relative to the 11-13 sequence,[1],greater than that of the 11-13 sequence
9-13 sequence: α-MSH 9-13 sequence (WGKPV),antipyretic potency relative to the 11-13 sequence,[1],almost devoid of activity
10-13 sequence: α-MSH(11-13) with addition of glycine to form the 10-13 sequence (GKPV),antipyretic potency relative to the 11-13 sequence,[1],slightly decreased potency
CC(=O)N[C@@H](CSSC[C@H](NC(C)=O)C(=O)N[C@@H](CCCCN)C(=O)N1CCC[C@H]1C(=O)N[C@H](C(N)=O)C(C)C)C(=O)N[C@@H](CCCCN)C(=O)N1CCC[C@H]1C(=O)N[C@H](C(N)=O)C(C)C [KPV dimer] (I: Ac-CKPV-NH2 / II: Ac-CKPV-NH2; disulfide I:1-II:1),S. aureus colony formation,S. aureus (ATCC 29213),inhibited S. aureus colony formation
same,ability of C albicans to form colony,C. albicans [2],greatly reduced the ability of C albicans to form colony
"C[C@H]1O[C@@H](n2cnc3c(N)ncnc32)C[C@@H]1O [ddAdo, dideoxyadenosine]",effect of ddAdo on the growth inhibition of C. albicans by α-MSH (1-13) and (11-13),C. albicans [3],reverse the effect
"CSCC[C@H](NC(C)=O)C(=O)N[C@@H](CCC(=O)O)C(=O)N[C@@H](Cc1c[nH]cn1)C(=O)N[C@@H](Cc1ccccc1)C(=O)N[C@@H](CCCNC(=N)N)C(=O)N[C@@H](Cc1c[nH]c2ccccc12)C(=O)NCC(N)=O [α-MSH (4-10), MEHFRWG]",inhibition of colony forming units (CFU),C. albicans [2]; 48 h,approximately 50%
CC(=O)N[C@@H](Cc1c[nH]cn1)C(=O)N[C@@H](Cc1ccccc1)C(=O)N[C@@H](CCCNC(=N)N)C(=O)N[C@@H](Cc1c[nH]c2ccccc12)C(=O)NCC(=O)N[C@@H](CCCCN)C(=O)N1CCC[C@H]1C(=O)N[C@H](C(N)=O)C(C)C [α-MSH (6-13)] (Ac-HFRWGKPV-NH2),reduction in the number of filamentous cells,C. albicans [4],approximately 50%
"CC(=O)N[C@@H](CCCCN)C(=O)N1CCC[C@H]1C(=O)N[C@H](C(N)=O)C(C)C [α-MSH (11-13), KPV] (Ac-Lys-Pro-Val-NH2)",reduction in the number of filamentous cells,C. albicans [4],54-58%
same,growth enhancing effect of urokinase on S. aureus,S. aureus,significantly countered the growth enhancing effect of urokinase
same,neutrophil killing of C. albicans,C. albicans [5],enhanced neutrophil killing of C. albicans
same,NF-κB activation,"NF-κB; Figure 14, TNF-α (20ng/ml) stimulated U1 cells, four hours, peptide 10^-5 M",significantly reduced NF-κB activation
same,NF-κB activation,NF-κB; resting cells,did not alter NF-κB activation
same,S. aureus colony formation,S. aureus (ATCC 29213),inhibited S. aureus colony formation
same,cAMP content in the C. albicans,C. albicans [6],enhanced cAMP content
same,ability of C albicans to form colony,C. albicans [2],greatly reduced the ability of C albicans to form colony
same,growth of C. albicans,"C. albicans [2]; Figure 8, relative to control, p<0.01",significantly inhibited the growth of C. albicans
same,reverse transcriptase release from U1 cells,HIV-1,inhibited
same,transcription of both spliced and unspliced HIV-1 RNA,HIV-1 RNA,inhibited
"ACTH (1-39): adrenocorticotropic hormone (1-39), prepared by solid-phase peptide synthesis (SYSMEHFRWGKPVGKKRRPVKVYPNGAEDESAEAFPLEF; Corticotropin; UniProt P01189 138-176, looked up) [reference compound]",C. albicans viability,C. albicans [2],did not reduce C. albicans viability
ACTH (18-39): ACTH fragment (18-39) (CLIP) [reference compound],C. albicans viability,C. albicans [2],did not reduce C. albicans viability
"[Nle^4,D-Phe^7]- α-MSH",potency in reducing fever relative to the parent peptide,[1],approximately ten times more potent
